According to ChEMBL document CHEMBL4359837, “Discovery of 2-(4-Chloro-3-(trifluoromethyl)phenyl)-N-(4-((6,7-dimethoxyquinolin-4-yl)oxy)phenyl)acetamide (CHMFL-KIT-64) as a Novel Orally Available Potent Inhibitor against Broad-Spectrum Mutants of c-KIT Kinase for Gastrointestinal Stromal Tumors” (J Med Chem, 2019):
Activity calls are given as the source filed them. The rule behind the calls is not given here.

What was measured:
[1] = tested on: Mast/stem cell growth factor receptor Kit (Homo sapiens), P10721 [UNDEFINED MUTATION]; settings: GISTT1, 0.1 uM
Description: Inhibition of c-KIT 560 to 578 deletion mutant in human GISTT1 cells assessed as reduction in c-KIT autophosphorylation at Y823 residue at 0.1 uM measured after 2 hrs by Western blot analysis

[2] = tested on: Mast/stem cell growth factor receptor Kit (Homo sapiens), P10721 [UNDEFINED MUTATION]; settings: GISTT1, 0.1 uM; remark: listed apart in the source
Description: Inhibition of c-KIT 560 to 578 deletion mutant in human GISTT1 cells assessed as reduction in ERK phosphorylation at T202 residue at 0.1 uM measured after 2 hrs by Western blot analysis

[3] = tested on: Mast/stem cell growth factor receptor Kit (Homo sapiens), P10721 [UNDEFINED MUTATION]; settings: GISTT1, 0.1 uM; remark: listed apart in the source
Description: Inhibition of c-KIT 560 to 578 deletion mutant in human GISTT1 cells assessed as reduction in ERK phosphorylation at T204 residue at 0.1 uM measured after 2 hrs by Western blot analysis

[4] = molecular target: RAC-alpha serine/threonine-protein kinase (Homo sapiens) (UniProt P31749); settings: 0.1 uM
Description: Inhibition of AKT autophosphorylation at T308 residue in human GIST5R cells harboring c-KIT 560 to 578 deletion/T670I mutant at 0.1 uM measured after 2 hrs by Western blot analysis

[5] = tested on: Mast/stem cell growth factor receptor Kit (Homo sapiens), P10721 [UNDEFINED MUTATION]; settings: GISTT1, 0.1 uM; remark: listed apart in the source
Description: Inhibition of c-KIT 560 to 578 deletion/T670I mutant in human GISTT1 cells assessed as reduction in c-KIT autophosphorylation at Y703 residue at 0.1 uM measured after 2 hrs by Western blot analysis

[6] = tested on: Mast/stem cell growth factor receptor Kit (Homo sapiens), P10721 [UNDEFINED MUTATION]; settings: GISTT1, 0.1 uM; remark: listed apart in the source
Description: Inhibition of c-KIT 560 to 578 deletion/T670I mutant in human GISTT1 cells assessed as reduction in c-KIT autophosphorylation at Y719 residue at 0.1 uM measured after 2 hrs by Western blot analysis

[7] = tested on: Mast/stem cell growth factor receptor Kit (Homo sapiens), P10721 [UNDEFINED MUTATION]; settings: GISTT1, 0.1 uM; remark: listed apart in the source
Description: Inhibition of c-KIT 560 to 578 deletion mutant in human GISTT1 cells assessed as reduction in c-KIT autophosphorylation at Y719 residue at 0.1 uM measured after 2 hrs by Western blot analysis

[8] = tested on: Mast/stem cell growth factor receptor Kit (Homo sapiens), P10721 [UNDEFINED MUTATION]; settings: GISTT1, 0.1 uM; remark: listed apart in the source
Description: Inhibition of c-KIT 560 to 578 deletion/T670I mutant in human GISTT1 cells assessed as reduction in c-KIT autophosphorylation at Y823 residue at 0.1 uM measured after 2 hrs by Western blot analysis

[9] = molecular target: RAC-alpha serine/threonine-protein kinase (Homo sapiens) (UniProt P31749); settings: GISTT1, 0.1 uM
Description: Inhibition of AKT autophosphorylation at T308 residue in human GISTT1 cells harboring c-KIT 560 to 578 deletion mutant at 0.1 uM measured after 2 hrs by Western blot analysis

[10] = tested on: Mast/stem cell growth factor receptor Kit (Homo sapiens), P10721 [UNDEFINED MUTATION]; settings: 0.1 uM
Description: Inhibition of c-KIT 560 to 578 deletion/T670I mutant in human GIST5R assessed as reduction in pS6 phosphorylation at S236 residue at 0.1 uM measured after 2 hrs by Western blot analysis

[11] = tested on: Mast/stem cell growth factor receptor Kit (Homo sapiens), P10721 [UNDEFINED MUTATION]; settings: 0.1 uM; remark: listed apart in the source
Description: Inhibition of c-KIT 560 to 578 deletion/T670I mutant in human GIST5R cells assessed as reduction in c-KIT autophosphorylation at Y703 residue at 0.1 uM measured after 2 hrs by Western blot analysis

[12] = Half life in mouse at 1 mg/kg, iv by LC-MS/MS analysis; format: ADME, organism-based; settings: in vivo
[13] = molecular target: T1, Mast/stem cell growth factor receptor Kit (Homo sapiens, UniProt P10721, 560-578DEL/T670I); format: cell-based
Homo sapiens [14] = format: functional, cell-based
[15] = Inhibition of recombinant human GST-tagged FLT4 cytoplasmic domain Q890H/V1128L/H1146R mutant (800 to 1297 residues) expressed in baculovirus expression system by Z-lyte assay
[16] = molecular target: Vascular endothelial growth factor receptor 3 (Homo sapiens) (UniProt P35916); assay: Binding affinity to wild-type human partial length FLT4 (E821 to E1196 residues) expressed in bacterial expression system assessed as residual binding level at 1 uM by Kinomescan method relative to control
[17] = tested on: Mast/stem cell growth factor receptor Kit (Homo sapiens), P10721 [K642E]
[18] = molecular target: T2, Mast/stem cell growth factor receptor Kit (Homo sapiens, UniProt P10721, 560-578DEL); format: cell-based, GISTT1
[19] = tested on: Mast/stem cell growth factor receptor Kit (Homo sapiens), P10721 [N822K]; settings: Mus musculus
Description: Inhibition of c-KIT N822K mutant in mouse BAF3(transformed) cells assessed as growth inhibition after 72 hrs by CCK8 assay

[20] = molecular target: T1, Mast/stem cell growth factor receptor Kit; format: cell-based, GISTT1
[21] = tested on: Mast/stem cell growth factor receptor Kit (Homo sapiens), P10721 [V560D]; settings: Mus musculus
[22] = Tmax in Sprague-Dawley rat at 1 mg/kg, iv by LC-MS/MS analysis; format: ADME, organism-based; settings: in vivo
[23] = AUC (0 to t) in mouse at 10 mg/kg, po by LC-MS/MS analysis; format: ADME, organism-based; settings: in vivo
[24] = molecular target: T2, Mast/stem cell growth factor receptor Kit; format: cell-based, GISTT1; remark: listed apart in the source
[25] = molecular target: T1, Mast/stem cell growth factor receptor Kit; format: cell-based, GISTT1; remark: listed apart in the source
[26] = molecular target: T3, Proto-oncogene tyrosine-protein kinase receptor Ret (Homo sapiens, UniProt P07949); assay: Inhibition of recombinant human RET cytoplasmic domain (658 to 1114 residues) expressed in baculovirus expression system by Z-lyte assay
[27] = Cmax in Beagle dog at 1 mg/kg, iv by LC-MS/MS analysis; format: ADME, organism-based, Canis lupus familiaris; set-up: dose 1 mg/kg, route intravenous; settings: in vivo
Homo sapiens [28] = species on record: Homo sapiens; format: functional, cell-based; remark: listed apart in the source
Mus musculus [29] = format: functional, organism-based; settings: BALB/c, 80 mg/kg, TDE = time-dependent effect
[30] = AUC (0 to t) in Sprague-Dawley rat at 10 mg/kg, po by LC-MS/MS analysis; format: ADME, organism-based; settings: in vivo
[31] = molecular target: RAC-alpha serine/threonine-protein kinase (Homo sapiens) (UniProt P31749); format: cell-based; settings: GISTT1
Homo sapiens [32] = format: functional; settings: 40 mg/kg
[33] = Half life in Sprague-Dawley rat at 10 mg/kg, po by LC-MS/MS analysis; format: ADME, organism-based; settings: in vivo
[34] = Tmax in Beagle dog at 1 mg/kg, iv by LC-MS/MS analysis; format: ADME, organism-based, Canis lupus familiaris; settings: in vivo
Mus musculus [35] = format: functional, organism-based; settings: BALB/c, 80 mg/kg, TDE = time-dependent effect; remark: listed apart in the source
[36] = Antitumor activity against mouse BAF3(transformed) cells harboring c-KIT D820G mutant implanted in BALB/c nu mouse assessed as tumor growth inhibition at 40 mg/kg/day, po administered via gavage for 9 days relative to control; format: functional; settings: 216 h, read-out: TGI
[37] = Cmax in Sprague-Dawley rat at 10 mg/kg, po by LC-MS/MS analysis; format: ADME, organism-based; set-up: dose 10 mg/kg, route oral; settings: in vivo
[38] = AUC (0 to t) in Beagle dog at 5 mg/kg, po by LC-MS/MS analysis; format: ADME, organism-based, Canis lupus familiaris; settings: in vivo
[39] = tested on: Mast/stem cell growth factor receptor Kit (Homo sapiens), P10721 [UNDEFINED MUTATION]; settings: GISTT1
Description: Inhibition of c-KIT 560 to 578 deletion/T670I mutant in human GISTT1 cells assessed as growth inhibition after 72 hrs by CCK8 assay

[40] = molecular target: T2, Mast/stem cell growth factor receptor Kit; format: cell-based, GISTT1; remark: listed apart in the source
[41] = molecular target: Epithelial discoidin domain-containing receptor 1 (Homo sapiens, UniProt Q08345); assay: Binding affinity to wild-type human partial length DDR1 (R565 to V876 residues) expressed in bacterial expression system assessed as residual binding level at 1 uM by Kinomescan method relative to control
[42] = molecular target: T3, Proto-oncogene tyrosine-protein kinase receptor Ret; assay: Binding affinity to wild-type human partial length RET (E713 to D1014 residues) expressed in bacterial expression system assessed as residual binding level at 1 uM by Kinomescan method relative to control
[43] = molecular target: T1, Mast/stem cell growth factor receptor Kit; format: cell-based, GISTT1; remark: listed apart in the source
[44] = Antitumor activity against mouse BAF3(transformed) cells harboring c-KIT D820G mutant implanted in BALB/c nu mouse assessed as tumor growth inhibition at 80 mg/kg/day, po administered via gavage for 9 days relative to control; format: functional; settings: 216 h, read-out: TGI
[45] = Half life in mouse at 10 mg/kg, po by LC-MS/MS analysis; format: ADME, organism-based; settings: in vivo
[46] = AUC (0 to t) in Sprague-Dawley rat at 1 mg/kg, iv by LC-MS/MS analysis; format: ADME, organism-based; settings: in vivo
[47] = molecular target: T2, Mast/stem cell growth factor receptor Kit; format: cell-based, GISTT1; remark: listed apart in the source
[48] = molecular target: T2, Mast/stem cell growth factor receptor Kit; format: cell-based, GISTT1; remark: listed apart in the source
[49] = molecular target: Serine/threonine-protein kinase 10 (Homo sapiens) (UniProt O94804); assay: Binding affinity to wild-type human partial length LOK (E16 to V314 residues) expressed in bacterial expression system assessed as residual binding level at 1 uM by Kinomescan method relative to control

Chain of Mast/stem cell growth factor receptor Kit (Homo sapiens), P10721 [UNDEFINED MUTATION] (P10721 whole entry, looked up, change not shown): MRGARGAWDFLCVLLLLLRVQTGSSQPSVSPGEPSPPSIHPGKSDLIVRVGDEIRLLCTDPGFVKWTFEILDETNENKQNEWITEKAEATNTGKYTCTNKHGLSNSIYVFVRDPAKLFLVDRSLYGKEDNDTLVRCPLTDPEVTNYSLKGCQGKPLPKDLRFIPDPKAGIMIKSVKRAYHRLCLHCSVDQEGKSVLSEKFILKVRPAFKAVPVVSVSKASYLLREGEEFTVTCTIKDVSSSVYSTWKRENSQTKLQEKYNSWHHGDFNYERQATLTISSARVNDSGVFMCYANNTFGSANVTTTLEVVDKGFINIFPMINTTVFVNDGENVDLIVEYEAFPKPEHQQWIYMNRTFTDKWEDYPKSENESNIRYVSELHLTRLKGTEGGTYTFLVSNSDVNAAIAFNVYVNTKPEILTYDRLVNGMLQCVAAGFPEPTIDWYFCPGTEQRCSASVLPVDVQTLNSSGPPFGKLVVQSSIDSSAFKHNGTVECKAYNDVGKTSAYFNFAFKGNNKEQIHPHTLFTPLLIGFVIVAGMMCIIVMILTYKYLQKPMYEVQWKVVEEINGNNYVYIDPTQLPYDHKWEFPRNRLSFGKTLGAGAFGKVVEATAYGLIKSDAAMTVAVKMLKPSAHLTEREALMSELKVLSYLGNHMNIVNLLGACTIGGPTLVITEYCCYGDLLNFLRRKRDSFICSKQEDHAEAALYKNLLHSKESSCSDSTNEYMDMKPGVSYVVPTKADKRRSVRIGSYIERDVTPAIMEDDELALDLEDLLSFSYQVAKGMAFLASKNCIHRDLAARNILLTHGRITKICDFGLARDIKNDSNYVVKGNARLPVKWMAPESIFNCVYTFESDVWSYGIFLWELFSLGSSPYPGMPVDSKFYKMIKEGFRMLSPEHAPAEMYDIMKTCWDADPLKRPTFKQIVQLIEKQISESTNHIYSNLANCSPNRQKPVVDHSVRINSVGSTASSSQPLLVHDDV
T2 sequence (P10721 whole entry, looked up, stated change not applied): as the sequence (P10721 whole entry, looked up, change not shown) above
T1 sequence (P10721 whole entry, looked up, stated change not applied): as the sequence (P10721 whole entry, looked up, change not shown) above
Chain of RAC-alpha serine/threonine-protein kinase (Homo sapiens) (P31749 whole entry): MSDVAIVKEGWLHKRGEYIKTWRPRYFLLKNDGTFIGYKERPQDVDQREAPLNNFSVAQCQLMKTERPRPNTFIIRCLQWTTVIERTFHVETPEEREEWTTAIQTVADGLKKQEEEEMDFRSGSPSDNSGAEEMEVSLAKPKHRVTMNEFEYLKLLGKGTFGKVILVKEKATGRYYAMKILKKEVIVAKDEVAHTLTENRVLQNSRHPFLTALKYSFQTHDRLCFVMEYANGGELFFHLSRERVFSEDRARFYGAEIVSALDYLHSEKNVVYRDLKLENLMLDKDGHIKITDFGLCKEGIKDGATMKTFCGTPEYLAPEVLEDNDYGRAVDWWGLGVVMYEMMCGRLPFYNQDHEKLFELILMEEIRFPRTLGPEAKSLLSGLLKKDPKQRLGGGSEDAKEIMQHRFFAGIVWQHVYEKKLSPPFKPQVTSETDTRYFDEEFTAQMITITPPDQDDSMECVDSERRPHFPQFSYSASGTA
T3 sequence (P07949 whole entry, the tested form may be a part): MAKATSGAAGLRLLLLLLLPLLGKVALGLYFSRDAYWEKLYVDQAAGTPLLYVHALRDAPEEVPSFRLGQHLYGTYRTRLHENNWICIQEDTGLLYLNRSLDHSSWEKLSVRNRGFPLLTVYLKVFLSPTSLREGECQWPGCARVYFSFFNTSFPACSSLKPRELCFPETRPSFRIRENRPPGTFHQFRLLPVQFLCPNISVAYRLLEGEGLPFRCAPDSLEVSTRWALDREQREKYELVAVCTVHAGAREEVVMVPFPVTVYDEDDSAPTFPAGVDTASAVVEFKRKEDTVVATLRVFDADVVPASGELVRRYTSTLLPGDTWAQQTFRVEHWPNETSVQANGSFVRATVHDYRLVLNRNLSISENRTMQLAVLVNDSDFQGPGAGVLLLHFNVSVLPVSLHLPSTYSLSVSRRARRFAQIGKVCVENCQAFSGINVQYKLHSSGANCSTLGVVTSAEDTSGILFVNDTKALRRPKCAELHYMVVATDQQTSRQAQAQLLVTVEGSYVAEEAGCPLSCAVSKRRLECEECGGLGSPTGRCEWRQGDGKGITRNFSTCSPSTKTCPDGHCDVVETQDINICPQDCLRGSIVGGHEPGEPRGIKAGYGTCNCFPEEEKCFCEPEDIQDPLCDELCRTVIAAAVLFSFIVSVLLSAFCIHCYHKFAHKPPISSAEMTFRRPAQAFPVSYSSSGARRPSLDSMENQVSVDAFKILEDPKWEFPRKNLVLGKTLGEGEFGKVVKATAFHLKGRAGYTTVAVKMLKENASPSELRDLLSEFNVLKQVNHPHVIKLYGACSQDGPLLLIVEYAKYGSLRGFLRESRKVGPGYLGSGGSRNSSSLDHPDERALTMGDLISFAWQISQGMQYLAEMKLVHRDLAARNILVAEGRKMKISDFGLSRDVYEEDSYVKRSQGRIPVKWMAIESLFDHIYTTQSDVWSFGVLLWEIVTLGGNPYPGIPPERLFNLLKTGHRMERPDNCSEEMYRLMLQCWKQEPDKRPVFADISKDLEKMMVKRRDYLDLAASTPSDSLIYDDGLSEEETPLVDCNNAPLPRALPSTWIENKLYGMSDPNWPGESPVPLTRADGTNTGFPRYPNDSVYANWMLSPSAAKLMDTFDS

CCN(CC)CCNC(=O)c1c(C)[nH]c(/C=C2\C(=O)Nc3ccc(F)cc32)c1C [SUNITINIB]
inhibition [1]: Active | inhibition [2]: Active | inhibition [3]: Active | inhibition [4]: Active | inhibition [5]: Active | inhibition [6]: Active | inhibition [7]: Active | inhibition [8]: Active | inhibition [9]: Active | inhibition [10]: Active | inhibition [11]: Active

COc1cc2nccc(Oc3ccc(NC(=O)Cc4ccc(Cl)c(C(F)(F)F)c4)cc3)c2cc1OC
half-life [12]: 5.4 h | EC50 [13]: < 100 nM | TGI (Homo sapiens [14]): Dose-dependent effect | IC50 [15]: 121 nM | Activity [16]: < 1% | GI50 [17]: 13 nM | EC50 [18]: < 100 nM | GI50 [19]: 26 nM | EC50 [20]: < 100 nM | GI50 [21]: 4 nM | Tmax [22]: 0 h | AUC(0-t) [23]: 12600 ng·h/mL | EC50 [24]: < 100 nM | EC50 [25]: < 100 nM | IC50 [26]: 34 nM | Cmax [27]: 1110 ng/mL | Activity (Homo sapiens [28]): Dose-dependent effect | inhibition (Mus musculus [29]): Tde | AUC(0-t) [30]: 25100 ng·h/mL | inhibition [31]: Active | TGI (Homo sapiens [32]): Dose-dependent effect | half-life [33]: 6.41 h | Tmax [34]: 1.98 min | inhibition (Mus musculus [35]): Tde | inhibition in vivo at 40 mg/kg/day [36]: 88.9% | Cmax [37]: 1640 ng/mL | AUC(0-t) [38]: 19100 ng·h/mL | GI50 [39]: 6 nM | EC50 [40]: < 100 nM | Activity [41]: < 1% | Activity [42]: < 1% | EC50 [43]: < 100 nM | inhibition in vivo at 80 mg/kg/day [44]: 92.7% | half-life [45]: 4.5 h | AUC(0-t) [46]: 2550 ng·h/mL | EC50 [47]: < 100 nM | EC50 [48]: < 100 nM | Activity [49]: < 1%
